Source: patent publication US5728726A, “Method and compositions for inhibiting protein kinases” (Cor Therapeutics, Inc., priority 1995, dated 1998)
Read-outs that look alike come from different tables or passages of the source. Each block holds one compound with its values, some of them ahead of it.

Legend:
[1] = system: human cell lines (HS68, HS 27, CCD18, and WS1); conditions: 96 hours
CCD18 = assay: cell proliferation under normal tissue culture conditions, CCD18; assay type: cell-based; conditions: Homo sapiens, read-out: IC50 CCD18
HS27 = assay: cell proliferation under normal tissue culture conditions, HS27; assay type: cell-based; conditions: Homo sapiens, read-out: IC50 HS27
WS1 = assay: cell proliferation under normal tissue culture conditions, WS1; assay type: cell-based; conditions: Homo sapiens, read-out: IC50 WS1
[2] = system: human cell lines (HS68, HS 27, CCD18, and WS1); assay: cells
recombinant c-src = recombinant c-src (Homo sapiens, UniProt P12931); assay: recombinant c-src kinase microtiter plate assay
Sequence of recombinant c-src (P12931 whole entry): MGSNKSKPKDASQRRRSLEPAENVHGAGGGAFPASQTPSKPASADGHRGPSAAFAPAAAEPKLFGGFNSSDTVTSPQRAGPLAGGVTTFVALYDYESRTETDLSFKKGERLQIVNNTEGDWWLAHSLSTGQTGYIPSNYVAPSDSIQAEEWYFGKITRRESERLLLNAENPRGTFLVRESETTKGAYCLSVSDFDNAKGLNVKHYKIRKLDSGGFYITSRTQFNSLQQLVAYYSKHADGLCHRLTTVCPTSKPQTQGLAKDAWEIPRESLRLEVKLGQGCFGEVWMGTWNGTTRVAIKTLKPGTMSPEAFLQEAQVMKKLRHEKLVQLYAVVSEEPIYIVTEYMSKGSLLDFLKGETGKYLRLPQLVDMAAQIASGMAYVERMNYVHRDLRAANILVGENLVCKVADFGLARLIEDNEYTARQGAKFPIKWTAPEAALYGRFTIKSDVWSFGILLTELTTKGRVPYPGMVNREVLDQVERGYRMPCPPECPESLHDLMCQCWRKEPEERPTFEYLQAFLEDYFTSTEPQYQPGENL

human beta PDGFR = human beta PDGFR (Homo sapiens, UniProt P09619); assay: beta PDGF receptor autophosphorylation in HR5 cells
Sequence of human beta PDGFR (P09619 33-1106): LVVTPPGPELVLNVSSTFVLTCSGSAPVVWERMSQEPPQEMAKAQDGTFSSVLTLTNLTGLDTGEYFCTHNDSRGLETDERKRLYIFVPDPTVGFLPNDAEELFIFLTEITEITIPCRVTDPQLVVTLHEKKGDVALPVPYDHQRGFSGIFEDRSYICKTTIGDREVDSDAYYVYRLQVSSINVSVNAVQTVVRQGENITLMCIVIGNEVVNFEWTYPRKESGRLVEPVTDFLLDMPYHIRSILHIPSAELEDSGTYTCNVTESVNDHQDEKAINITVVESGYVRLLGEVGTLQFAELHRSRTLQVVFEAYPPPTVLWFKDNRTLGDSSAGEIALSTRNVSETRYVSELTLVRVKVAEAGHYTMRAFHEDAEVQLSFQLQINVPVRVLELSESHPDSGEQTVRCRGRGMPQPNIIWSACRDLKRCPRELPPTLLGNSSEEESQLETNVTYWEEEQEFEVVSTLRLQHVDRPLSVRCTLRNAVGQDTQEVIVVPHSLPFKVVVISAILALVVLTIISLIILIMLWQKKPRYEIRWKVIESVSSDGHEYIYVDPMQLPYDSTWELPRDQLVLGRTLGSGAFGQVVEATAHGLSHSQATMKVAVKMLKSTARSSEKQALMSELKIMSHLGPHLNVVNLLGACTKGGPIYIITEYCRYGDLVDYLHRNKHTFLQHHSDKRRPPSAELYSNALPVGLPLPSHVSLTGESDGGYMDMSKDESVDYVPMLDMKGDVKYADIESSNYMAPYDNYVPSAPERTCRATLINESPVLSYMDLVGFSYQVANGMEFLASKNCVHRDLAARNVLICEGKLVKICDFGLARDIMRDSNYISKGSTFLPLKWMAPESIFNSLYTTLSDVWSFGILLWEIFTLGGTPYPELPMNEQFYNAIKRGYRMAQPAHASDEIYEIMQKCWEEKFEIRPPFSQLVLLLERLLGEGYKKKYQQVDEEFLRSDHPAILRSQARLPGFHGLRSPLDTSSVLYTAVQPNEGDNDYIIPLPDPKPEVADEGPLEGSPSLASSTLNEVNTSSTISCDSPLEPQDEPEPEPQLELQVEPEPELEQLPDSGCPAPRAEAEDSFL

Protein Kinase A (PKA) = Protein Kinase A (PKA) (Homo sapiens, UniProt P17612); assay: Protein Kinase A non-radioactive kinase assay (UBI)
HS68 = assay: cell proliferation under normal tissue culture conditions, HS68; conditions: Homo sapiens, Hs68, 96 h, read-out: IC50 HS68
human FGF receptor-1 = molecular target: T1, human FGF receptor-1 (Homo sapiens, UniProt P11362); assay: FGF receptor-1 autophosphorylation in CHO cells; assay type: cell-based
T1 construct: expressed in transfected cells; host or cells: CHO cells
T1 sequence (P11362 22-822): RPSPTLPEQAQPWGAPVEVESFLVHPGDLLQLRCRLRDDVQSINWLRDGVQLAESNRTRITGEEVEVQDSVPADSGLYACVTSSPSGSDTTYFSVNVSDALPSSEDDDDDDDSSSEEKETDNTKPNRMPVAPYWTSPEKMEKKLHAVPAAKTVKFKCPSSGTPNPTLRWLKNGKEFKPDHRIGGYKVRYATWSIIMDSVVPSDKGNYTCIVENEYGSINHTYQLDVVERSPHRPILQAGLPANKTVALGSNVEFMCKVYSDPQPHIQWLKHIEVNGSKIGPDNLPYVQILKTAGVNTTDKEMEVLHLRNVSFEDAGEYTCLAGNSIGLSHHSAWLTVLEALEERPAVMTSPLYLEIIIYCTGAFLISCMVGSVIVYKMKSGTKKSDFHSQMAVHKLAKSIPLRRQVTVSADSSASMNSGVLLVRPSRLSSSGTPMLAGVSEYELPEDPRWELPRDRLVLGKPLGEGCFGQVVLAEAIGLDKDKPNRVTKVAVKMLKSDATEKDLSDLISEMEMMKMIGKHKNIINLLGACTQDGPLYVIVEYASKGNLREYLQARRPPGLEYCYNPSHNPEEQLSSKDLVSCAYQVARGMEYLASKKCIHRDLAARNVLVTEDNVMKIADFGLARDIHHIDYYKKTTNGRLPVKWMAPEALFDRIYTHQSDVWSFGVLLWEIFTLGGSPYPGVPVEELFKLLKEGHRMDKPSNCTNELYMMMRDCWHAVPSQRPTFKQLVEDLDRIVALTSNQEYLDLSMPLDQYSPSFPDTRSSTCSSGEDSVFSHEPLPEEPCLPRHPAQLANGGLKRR
Experimental: In order to measure FGF receptor-1 autophosphorylation, the human FGF receptor-1 cDNA was stably over-expressed in CHO cells using standard techniques. These cells were grown to confluency in RPMI with 10% fetal bovine serum, the media was replaced with serum-free RPMI and incubation continued for 18 hours prior to stimulation with BFGF (75 ng/ml) for 10 min at 37° C. in the absence of presence or PTK inhibitors in a concentration range of 0.1-30 μM Cell lysates were prepared under the same conditions as described above for the EGF receptor assay. Lysates were incubated with a monoclonal antibody directed against the FGF receptor-1 extracellular domain (prepared at COR Therapeutics, South San Francisco, Calif.) and the immunoprecipitated receptor was subjected to SDS-PAGE and Western blot analysis with antiphosphotyrosine antibodies as described above for EGF receptor.

HS68 cells = assay: PDGF BB-induced [3H]thymidine incorporation into HS68 cells; assay type: cell-based; conditions: Homo sapiens, Hs68, read-out: concentration blocking PDGF BB induced thymidine incorporation by 50%
Experimental: […]. Since there are many reports in the literature implicating PDGF in diseases such as glomerulonephritis, cancer, atherosclerosis, and restenosis we tested 292 for its ability to block PDGF induced cell proliferation. A human primary fibroblast cell line, HS68 (ATCC), was plated into 96 well dishes at 150,000 cells/well in media containing 10% fetal bovine serum in DMEM. The cells were incubated at 37° C. for 7-10 days at which time they had become confluent and quiescent. […] To determine the level of cell proliferation, […] of [^3 H ]thymidine were added to each well and incubation was continued for an additional 5 hours. Cells were then washed with 5% cold trichloroacetic acid (TCA), solubilized in 0.2N NaOH, 0.1% SDS and the amount of [^3 H]thymidine incorporation was determined. […].

Protein Kinase C (PKC) = assay: Protein Kinase C non-radioactive kinase assay (UBI); conditions: at a concentration of 40 μm

SMILES: CN[C@@H]1C[C@H]2O[C@@](C)([C@@H]1OC)n1c3ccccc3c3c4c(c5c6ccccc6n2c5c31)C(=O)NC4 [Staurosporin, reference compound]
concentration completely blocking the growth of all of the cell lines [1]: 0.01 µM

SMILES: COC(=O)[C@@]1(O)C[C@H]2O[C@]1(C)n1c3ccccc3c3c4c(c5c6ccccc6n2c5c31)C(=O)NC4 [Compound K252a, K252a, reference compound]
IC50 (CCD18; 96 h): 1 µM
IC50 (HS27; HS27, 96 h): 12 µM
IC50 (WS1; WS1, 96 h): 5 µM
IC50 ([2]; read-out: concentration range inhibiting cell growth by 50%): 1 to 12 µM
IC50 (recombinant c-src): 0.02 µM
IC50 (human beta PDGFR): 0.27 µM
IC50 (Protein Kinase A (PKA)): 0.07 µM
IC50 (Protein Kinase A (PKA); IC50 PKA, Table 2, inhibition of protein kinase activity): 0.07 µM
IC50 (HS68): 5 µM

IC50 (human FGF receptor-1; Table 2, inhibition of protein kinase activity): > 30 µM
inhibition of FGF receptor autophosphorylation (human FGF receptor-1; concentrations as high as 30 μM): no detectable inhibition
IC50 (HS68 cells): 0.016 µM
IC100 (human beta PDGFR; read-out: concentrations at which complete inhibition was observed): > 0.2 µM
IC50 (Protein Kinase A (PKA)): > 40 µM
reduction in PKA activity (Protein Kinase A (PKA); at a concentration of 40 μm): did not achieve a 50% reduction
reduction in PKC activity (Protein Kinase C (PKC)): did not achieve a 50% reduction
SMILES: COc1cc(O)c2c(c1)/C=C/C[C@H](O)[C@H](O)C(=O)/C=C\C[C@H](C)OC2=O [Compound 292]
IC50 (CCD18; Table 3, 96 hours, 10% fetal bovine serum): > 30 µM
IC50 (HS27; HS27, Table 3, 96 hours, 10% fetal bovine serum): > 30 µM
IC50 (WS1; WS1, Table 3, 96 hours, 10% fetal bovine serum): > 30 µM
decrease in cell growth of any of the cell lines tested ([1]; concentrations up to 10 μm): no decrease
inhibition at 30 µM ([2]; 96 h, read-out: decrease in cell growth): 10 to 20%
IC50 (HS68): > 30 µM
